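Exposure lasted 48 hours, with cells grown in 96-well plates and compounds tested at five concentrations. At the GI50, growth is halved.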 The source made the active and inactive calls. Rule as the data show it: active = GI50 up to about 1.1 µM and inactive = higher.
Legend:
Experiment in all cases: growth of human tumour cells (NCI), 48 h
[1] = system: A498
[2] = system: UACC-62
[3] = system: M14
[4] = system: OVCAR-4
[5] = system: HCT-15
[6] = system: SK-OV-3
[7] = system: SF-295
[8] = system: IGROV-1
[9] = system: SF-539
[10] = system: NCI-H226
[11] = system: HOP-62
[12] = system: OVCAR-5
[13] = system: ACHN
[14] = system: UO-31
[15] = system: SF-268
[16] = system: SW-620
[17] = system: A549
[18] = system: CAKI-1
[19] = system: 786-0

SMILES | GI50 [1] | GI50 [2] | GI50 [3] | GI50 [4] | GI50 [5] [µM] | GI50 [6] | GI50 [7] | GI50 [8] | GI50 [9] | GI50 [10] | GI50 [11] | GI50 [12] | GI50 [13] | GI50 [14] | GI50 [15] | GI50 [16] | GI50 [17] | GI50 [18] | GI50 [19]
C=CCOCCC(CC=C)C(=O)CC(=O)OC (stereo not drawn) | > 100 µM (inactive) | 52.8 µM (inactive) | > 100 µM (inactive) | > 100 µM (inactive) | > 100 | > 100 µM (inactive) | > 100 µM (inactive) | > 100 µM (inactive) | > 100 µM (inactive) | > 100 µM (inactive) | > 100 µM (inactive) | > 100 µM (inactive) | > 100 µM (inactive) | > 100 µM (inactive) | > 100 µM (inactive) | > 100 µM (inactive) | > 100 µM (inactive) |  | 
CN1CC[C@]2(C)c3c(O)cccc3CC3CCCC1C32C (stereo partly drawn) | > 100 µM (inactive) | > 100 µM (inactive) | > 100 µM (inactive) |  | > 100 | > 100 µM (inactive) | > 100 µM (inactive) | > 100 µM (inactive) | > 100 µM (inactive) | > 100 µM (inactive) | > 100 µM (inactive) | > 100 µM (inactive) | > 100 µM (inactive) | > 100 µM (inactive) | > 100 µM (inactive) |  | > 100 µM (inactive) | > 100 µM (inactive) | > 100 µM (inactive)
O=c1c(-c2ccccc2)c2oc(c1-c1ccccc1)CS(=O)(=O)CCC2 |  | 21.5 µM (inactive) |  |  | 15.6 | > 100 µM (inactive) | > 100 µM (inactive) | 45 µM (inactive) | 18.2 µM (inactive) | 18.5 µM (inactive) | 42.6 µM (inactive) |  | 29 µM (inactive) |  | 21.9 µM (inactive) | 32.7 µM (inactive) | 57.3 µM (inactive) | 28.8 µM (inactive) | 19.8 µM (inactive)
COc1ccc(/C=C2\C(=O)N(C(=O)c3ccc(NC(C)=O)cc3)N=C2C)cc1 |  |  | > 100 µM (inactive) | > 100 µM (inactive) | > 100 |  | > 100 µM (inactive) |  | > 100 µM (inactive) | > 100 µM (inactive) | > 100 µM (inactive) | > 100 µM (inactive) | > 100 µM (inactive) | > 100 µM (inactive) | > 100 µM (inactive) | > 100 µM (inactive) | > 100 µM (inactive) | > 100 µM (inactive) | > 100 µM (inactive)
Cc1ccc(C#CS(=O)(=O)C(F)(F)F)cc1 | > 100 µM (inactive) | > 100 µM (inactive) |  | > 100 µM (inactive) | > 100 | > 100 µM (inactive) | > 31.6 µM (inactive) | > 100 µM (inactive) | > 100 µM (inactive) | > 89.7 µM (inactive) | > 100 µM (inactive) | > 100 µM (inactive) |  | > 100 µM (inactive) | > 100 µM (inactive) | > 100 µM (inactive) | > 100 µM (inactive) |  | 
Cn1nc(-c2ccccc2)c2c(/C=C/c3ccc(Cl)cc3)onc2c1=O |  | 35.8 µM (inactive) | > 100 µM (inactive) |  | 26.3 | > 10 µM (inactive) | 27.4 µM (inactive) | 31.4 µM (inactive) | 22.6 µM (inactive) |  |  |  | 8.57 µM (inactive) | 16.3 µM (inactive) | > 100 µM (inactive) | 28.7 µM (inactive) | 8.95 µM (inactive) | > 10 µM (inactive) | 7.6 µM (inactive)
Nc1ccccc1S(=O)(=O)c1ccccc1 | > 100 µM (inactive) | > 100 µM (inactive) | > 100 µM (inactive) | > 100 µM (inactive) | > 100 | > 100 µM (inactive) | > 100 µM (inactive) | > 100 µM (inactive) | > 100 µM (inactive) | 51.2 µM (inactive) | > 100 µM (inactive) | > 100 µM (inactive) | > 100 µM (inactive) | > 100 µM (inactive) | > 100 µM (inactive) | > 100 µM (inactive) | > 100 µM (inactive) |  | 
CN(C)CCCNC(=O)N/N=C/c1ccccc1 | > 100 µM (inactive) | > 100 µM (inactive) |  |  | > 100 | > 100 µM (inactive) | > 100 µM (inactive) | > 100 µM (inactive) | > 100 µM (inactive) | > 100 µM (inactive) |  |  | > 100 µM (inactive) | > 100 µM (inactive) | > 100 µM (inactive) | > 100 µM (inactive) | > 100 µM (inactive) |  | 
c1ccc2c(c1)NCc1cc3ccccc3nc1O2 | > 75.5 µM (inactive) | > 100 µM (inactive) |  | > 100 µM (inactive) | > 100 | > 100 µM (inactive) | > 100 µM (inactive) | > 100 µM (inactive) | > 100 µM (inactive) | > 40.7 µM (inactive) | > 100 µM (inactive) | > 100 µM (inactive) |  | 26.9 µM (inactive) | > 100 µM (inactive) | > 100 µM (inactive) | > 100 µM (inactive) | > 100 µM (inactive) | 

Reference: ChEMBL document CHEMBL1201862, “PubChem BioAssay data set” (2004)
